Measured values reported in paper PMC6005460, “Discovery of a novel potent peptide agonist to adiponectin receptor 1” (PLoS ONE, 2018).
Values after ≈ are worked out from the molar mass of the structure shown. One block for each molecule: values may come before it. Where a SMILES comes first, the peptide text is derived from it. Where no end group is shown, it is not given here. [ ]: non-standard residue; d: D form. Nva = CCC[C@H](N)C(=O)O

Legend:
AdipoR1-Δ88 = target: T1, AdipoR1-Δ88 (Homo sapiens, UniProt Q96A54); experiment: Surface plasmon resonance binding to immobilized AdipoR1-Δ88; settings: for SPR screening of designed peptides, selection: Biacore T-200, selected versus ADP355 by concentration-dependent signal increase, dissociation rate and estimated Kd, 25 candidate peptides
T1 construct: made in house; host or cells: Sf9 insect cells (Bac-to-Bac baculovirus)
T1 sequence (Q96A54 89-375 limits assumed): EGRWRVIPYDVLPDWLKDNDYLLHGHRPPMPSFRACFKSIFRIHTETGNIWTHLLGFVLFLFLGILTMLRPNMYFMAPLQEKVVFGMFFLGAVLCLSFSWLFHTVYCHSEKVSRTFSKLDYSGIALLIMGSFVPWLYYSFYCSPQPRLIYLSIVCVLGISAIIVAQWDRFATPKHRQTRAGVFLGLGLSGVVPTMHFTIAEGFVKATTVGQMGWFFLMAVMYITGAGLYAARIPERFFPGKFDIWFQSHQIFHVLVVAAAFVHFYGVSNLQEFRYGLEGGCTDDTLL
Protocol: DNA gene fragment encoding AdipoR1 fused to an N-terminal flag tag was synthesized after codon optimization for insect cell expression (Integrated DNA Technologies). Full length AdipoR1 and AdipoR1-Δ88 were expressed in SF9 cell line using Bac-to-Bac Baculovirus system and purified following the procedure described by T. Tanabe et. al.. Briefly, 1 L SF9 cells infected with amplified baculovirus were cultured in SF-900 III SFM media (Thermo Fisher Scientific) for 3 days at 27°C. Harvested cells were disrupted by dounce homogenization, followed by centrifugation at 30,000 rpm for 2 hours. Collected raw membrane were washed with HEPES buffer and stored in -80°C after flash-freezing. Membranes were solubilized with 1% DDM (Anatrace) and recombinant AdipoR1-Δ88 was purified by using anti-flag tag antibody magnetic beads (Sigma). Eluted AdipoR1-Δ88 by flag peptide (Sigma) was further purified in 20 mM HEPES (pH7.4), 150 mM NaCl, 10% glycerol, 0.025% DDM, and 0.0001% CHS by Superdex 200 (GE Healthcare). The amount of purified AdipoR1-Δ88 was estimated by using Bradford staining.
In order to screen peptide library against AdipoR1, purified AdipoR1-Δ88 was immobilized onto S-series CM5 chip (GE Healthcare Life Science). Since AdipoR1-Δ88 was solubilized with a detergent-containing buffer solution, pH scouting solutions with various pH from 3.5 to 5.5 were prepared with the same detergent solution, 0.025% DDM and 0.0001% cholesteryl-hemi-succinate (CHS, Anatrace). At pH 5, AdipoR1-Δ88 was immobilized at around 4000 response unit using amine coupling method though EDC/NHS. After enough stabilization with running buffer consisting of 20 mM HEPES (pH7.4), 150 mM NaCl, 10% glycerol, 0.025% DDM, and 0.0001% CHS, serial concentrations from 1 to 100 μM were injected into reference and sample cells with 60-second contact time, 200-second dissociation time, and 30 μl/min flow rate at 4°C. The resulting sensorgrams were double-blanked by reference cell and buffer injection.

AdipoRs = settings: previous studies; cited from earlier work
[1] = system: AdipoR1-mediated AMPK activation (pAMPK Thr172) in differentiated C2C12 myotubes; experiment: AMPK activation in differentiated C2C12 myotubes (Western blot); format: cell-based, Mouse; settings: differentiated C2C12 myotubes, 0.8, 4 and 20 μM, in words
Protocol: (§1) Mouse C2C12 myoblasts (American Type Culture Collection) were maintained in Dulbecco’s modified Eagle’s medium (DMEM) supplemented with 10% FBS. C2C12 myotube was obtained by culturing myoblasts in DMEM containing 2% horse serum for at least 5 days with daily media change. On the fifth day, differentiation of cells could be confirmed by multinucleated contracted myotubes. C2C12 myotubes were then treated with selected peptide candidates at indicated concentrations for 30 minutes. As a positive control, 2 μg/ml recombinant human globular adiponectin and indicated concentrations of ADP355 were used.
(§2) Cell lysates were subjected to SDS-PAGE and western blot analysis. Briefly, cells were lysed with protein lysis buffer (RIPA, Thermo) followed by heat denaturation. Five micrograms of whole cell proteins were applied to SDS-PAGE. After electrophoresis, the proteins were transferred onto PVDF membrane, followed by membrane blocking in TBS-T buffer containing 5% non-fat dry milk for 1 hour at room temperature. The membrane was probed with the following different primary antibodies: anti-phosphorylated-AMPK (Thr172) (Cell Signaling), anti-tAMPK (Cell Signaling), anti-pACC, and anti-GAPDH (Santa-Cruz). […] Signals from Western blot were quantified by using Image Lab Software 6.0 (Bio-Rad).

Solubility of peptides = format: physicochemical
[2] = system: acetyl Co-A carboxylase (ACC) phosphorylation in differentiated C2C12 myotubes; experiment: ACC phosphorylation in differentiated C2C12 myotubes (Western blot); format: cell-based, Mouse; settings: PEGylated BHD1028, Western blot, in words
Protocol: as §1, §2

[3] = target: T2, AdipoR1-Δ88 (adiponectin receptor 1 lacking the N-terminal 88 residues) (human, UniProt Q96A54 89-375); experiment: SPR; AdipoR1-Δ88 immobilised on CM5 chip by amine coupling at pH 5 (around 4000 RU); peptides 1 to 100 μM injected, 60 s contact, 200 s dissociation, 30 μl/min, 4°C; 20 mM HEPES pH 7.4, 150 mM NaCl, 10% glycerol, 0.025% DDM, 0.0001% CHS; Kd from saturation curves of responses at equilibrium; settings: both partners purified
T2 construct: Adiponectin receptor 1 (AdipoR1), human; N-terminal 88 residues deleted; gene synthesised, codon-optimised for insect cells; Kept in 0.025% DDM and 0.0001% CHS; The functional rows were done on mouse C2C12 or human HepG2 cells with their own AdipoR1; m1 stands there for AdipoR1; also called AdipR1-Δ88; source: SF9 cells (Bac-to-Bac baculovirus), solubilised with 1% DDM, purified (anti-flag …)
T2 sequence (looked up): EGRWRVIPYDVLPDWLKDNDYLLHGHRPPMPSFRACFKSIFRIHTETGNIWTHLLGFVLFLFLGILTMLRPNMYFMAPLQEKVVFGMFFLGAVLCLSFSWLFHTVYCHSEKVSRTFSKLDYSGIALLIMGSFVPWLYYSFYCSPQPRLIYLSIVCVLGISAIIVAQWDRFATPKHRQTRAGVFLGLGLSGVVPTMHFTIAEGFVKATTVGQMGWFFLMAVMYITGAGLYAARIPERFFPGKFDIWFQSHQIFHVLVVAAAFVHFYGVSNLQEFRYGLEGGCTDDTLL

Molecule: CCC[C@H](NC(=O)[C@@H]1CCCN1C(=O)[C@@H](NC(=O)[C@H](N)CC(N)=O)[C@@H](C)CC)C(=O)N[C@@H](CC(C)C)C(=O)N[C@@H](Cc1ccc(O)cc1)C(=O)N[C@H](CO)C(=O)N[C@@H](Cc1ccccc1)C(=O)N[C@@H](C)C(=O)N[C@H](CO)C(N)=O [ADP355, reference compound] (H-[dN]IP[Nva]LY[dS]FA[dS]-NH2)
- Kd (AdipoR1-Δ88; SPR, AdipoR1-Δ88 amine-coupled on CM5 chip, 1 to 100 μM peptide, 4°C, 20 mM HEPES pH7.4, 0.025% DDM, 0.0001% CHS, from saturation curves with responses at equilibrium state): > 100 µM
- SPR response (AdipoR1-Δ88; SPR, AdipoR1-Δ88 on CM5 chip, serial concentrations 1 to 100 μM, in words): very weak SPR responses except 100 μM concentration
- cellular efficacy (AdipoRs): nano molar concentration

Molecule: CC[C@H](C)[C@H](NC(=O)[C@H](CC(N)=O)NC(=O)[C@@H]1CCCN1C(=O)[C@H](Cc1c[nH]cn1)NC(=O)[C@H](Cc1ccc(O)cc1)NC(=O)[C@H](C)NC(=O)[C@H](Cc1ccccc1)NC(=O)[C@H](Cc1ccc(O)cc1)NC(=O)[C@@H](N)Cc1c[nH]c2ccccc12)C(=O)N1CCC[C@H]1C(=O)NCC(=O)N[C@@H](CC(C)C)C(=O)N[C@@H](Cc1c[nH]c2ccccc12)C(=O)N[C@@H](Cc1ccc(O)cc1)C(=O)N[C@@H](Cc1ccccc1)C(=O)O [BHD43] (H-WYFAYHPNIPGLWYF-OH)
- SPR screening of designed peptides, selection (AdipoR1-Δ88): preliminarily selected
- AMPK activation [1]: activated AMPK in a concentration-dependent manner

Molecule: PEGylated BHD1028: BHD1028 N-terminally mono-PEGylated with 5000 Da polyethylene glycol ({PEG 5000 Da}-YYFAYHPNIPGLYYF)
- ACC activation, concentration dependence [2]: concentration dependent
- solubility after PEGylation (Solubility of peptides; modified with 5000 Da of PEG, in words): much enhanced solubility

B2: BHD43 (peptide)
peptide: WYFAYHPNIPGLWYF
notes: designed 15-mer, adiponectin-mimetic; free N- and C-termini as printed (NH2-...-COOH); source: synthetic peptide (AnyGen Ltd.)
- Kd [3]: 10 µM

Now from value to molecule, other results behind:

- SPR screening of designed peptides, selection (AdipoR1-Δ88): preliminarily selected
Molecule: CC[C@H](C)[C@H](NC(=O)[C@H](CC(N)=O)NC(=O)[C@@H]1CCCN1C(=O)[C@H](Cc1c[nH]cn1)NC(=O)[C@H](Cc1ccc(O)cc1)NC(=O)[C@H](C)NC(=O)[C@H](Cc1ccccc1)NC(=O)[C@H](Cc1ccc(O)cc1)NC(=O)[C@@H](N)Cc1ccccc1)C(=O)N1CCC[C@H]1C(=O)NCC(=O)N[C@@H](CC(C)C)C(=O)N[C@@H](Cc1ccccc1)C(=O)N[C@@H](Cc1ccc(O)cc1)C(=O)N[C@@H](Cc1ccccc1)C(=O)O [BHD44] (H-FYFAYHPNIPGLFYF-OH)
- AMPK activation [1]: activated AMPK in a concentration-dependent manner

- SPR screening of designed peptides, selection (AdipoR1-Δ88): preliminarily selected
- dissociation in the SPR sensorgram (AdipoR1-Δ88; among screened peptides, in words): slowest dissociation
- solubility in DMSO (Solubility of peptides; DMSO): 100 mM (≈ 193 mg/mL)
- solubility (Solubility of peptides; aqueous buffer, PBS buffer pH 7.4, unmodified peptide): ≤ 0.05 mM
Molecule: CC[C@H](C)[C@H](NC(=O)[C@H](CC(N)=O)NC(=O)[C@@H]1CCCN1C(=O)[C@H](Cc1c[nH]cn1)NC(=O)[C@H](Cc1ccc(O)cc1)NC(=O)[C@H](C)NC(=O)[C@H](Cc1ccccc1)NC(=O)[C@H](Cc1ccc(O)cc1)NC(=O)[C@@H](N)Cc1ccc(O)cc1)C(=O)N1CCC[C@H]1C(=O)NCC(=O)N[C@@H](CC(C)C)C(=O)N[C@@H](Cc1ccc(O)cc1)C(=O)N[C@@H](Cc1ccc(O)cc1)C(=O)N[C@@H](Cc1ccccc1)C(=O)O [BHD1028] (H-YYFAYHPNIPGLYYF-OH)

- Kd [3]: 16 µM
B1: BHD1028 (peptide)
peptide: YYFAYHPNIPGLYYF
notes: designed 15-mer, adiponectin-mimetic; free N- and C-termini as printed (NH2-...-COOH); also called BHD31; source: synthetic peptide (AnyGen Ltd.)

- Kd [3]: 4.3 µM
B3: BHD44 (peptide)
peptide: FYFAYHPNIPGLFYF
notes: as for B2
